Measured values as given in BindingDB's records for PubMed 38701715 (Shaanxi University of Chinese Medicine).

Assay: Inhibition of ACAT2 (unknown origin)

IC50: 124 µM
Compound: COc1ccc([C@@H]2O[C@H](c3ccc(OC(C)C(O)c4ccc5c(c4)COC5)c(OC)c3)[C@H](C)[C@@H]2C)cc1OC (stereo partly specified)
